Laboratory results taken from US20230085307A1, “PYRIDAZINONE COMPOUND AND HERBICIDE” (NISSAN CHEMICAL CORPORATION, priority 2019, published 2023).

What was measured:
windgrass [1] = assay: Test Example 5: herbicidal effect by foliage application, plastic box (Table 20, symbol L); type: in vivo, windgrass (Apera spica-venti)
In short: (§1)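 Post-emergence foliar test in sterilized diluvial soil. Compound applied as water-diluted emulsion at a predetermined rate to 14-day-old plants; evaluation at three weeks.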

lambsquarters [2] = assay: Test Example 5: herbicidal effect by foliage application, plastic box (Table 20, symbol O); type: in vivo, lambsquarters (Chenopodium album)
In short: as §1

wild oat [3] = assay: Test Example 4: herbicidal effect by soil treatment (Table 19, symbol I); type: in vivo, wild oat (Avena fatua)
In short: (§2)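 Scoring uses the grading scale of an earlier test, three weeks post-application. Treatment consists of spraying a diluted emulsion formulation across the surface of sterilized diluvial soil in which seeds are buried near 1.5 cm deep; boxes are kept in a greenhouse between 25° C. and 30° C.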

blackgrass [4] = assay: Test Example 4: herbicidal effect by soil treatment (Table 19, symbol J); type: in vivo, blackgrass (Alopecurus myosuroides)
In short: as §2

green foxtail [5] = assay: Test Example 5: herbicidal effect by foliage application, plastic box (Table 20, symbol G); type: in vivo, green foxtail (Setaria viridis)
In short: as §1

velvetleaf [6] = assay: Test Example 5: herbicidal effect by foliage application, plastic box (Table 20, symbol M); type: in vivo, velvetleaf (Abutilon theophrasti)
In short: as §1

barnyard grass [7] = assay: Test Example 4: herbicidal effect by soil treatment (Table 19, symbol H); type: in vivo, barnyard grass (Echinochloa crus-galli)
In short: as §2

southern crabgrass [8] = assay: Test Example 4: herbicidal effect by soil treatment (Table 19, symbol F); type: in vivo, southern crabgrass (Digitaria ciliaris)
In short: as §2

Italian ryegrass [9] = assay: Test Example 5: herbicidal effect by foliage application, plastic box (Table 20, symbol K); type: in vivo, Italian ryegrass (Lolium multiflorum)
In short: as §1

persian speedwell [10] = assay: Test Example 5: herbicidal effect by foliage application, plastic box (Table 20, symbol R); type: in vivo, Persian speedwell (Veronica persica)
In short: as §1

barnyard grass [11] = assay: Test Example 3: herbicidal effect by foliage application, Wagner pot (Table 18, symbol H); type: in vivo, barnyard grass (Echinochloa crus-galli); details: 320 g/ha
In short: (§3)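 Plants were sown in alluvial soil held under 0.1–0.5 cm standing water and grown 14 days in a greenhouse at 25–30 °C. An emulsifiable formulation, water-diluted to the set dose, was then sprayed onto the foliage, and effects were scored three weeks later using previously defined criteria.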

blackgrass [12] = assay: Test Example 5: herbicidal effect by foliage application, plastic box (Table 20, symbol J); type: in vivo, blackgrass (Alopecurus myosuroides)
In short: as §1

redroot pigweed [13] = assay: Test Example 5: herbicidal effect by foliage application, plastic box (Table 20, symbol N); type: in vivo, redroot pigweed (Amaranthus retroflexus)
In short: as §1

Chinese sprangletop = assay: Test Example 3: herbicidal effect by foliage application, Wagner pot (Table 18, symbol D); type: in vivo, chinese sprangletop (Leptochloa chinensis); details: 320 g/ha
In short: as §3

chickweed [14] = assay: Test Example 5: herbicidal effect by foliage application, plastic box (Table 20, symbol P); type: in vivo, common chickweed (Stellaria media)
In short: as §1

rice flat sedge = assay: Test Example 3: herbicidal effect by foliage application, Wagner pot (Table 18, symbol E); type: in vivo, rice flat sedge (Cyperus iria); details: 320 g/ha
In short: as §3

green foxtail [15] = assay: Test Example 4: herbicidal effect by soil treatment (Table 19, symbol G); type: in vivo, green foxtail (Setaria viridis)
In short: as §2

wild oat [16] = assay: Test Example 5: herbicidal effect by foliage application, plastic box (Table 20, symbol I); type: in vivo, wild oat (Avena fatua)
In short: as §1

chickweed [17] = assay: Test Example 4: herbicidal effect by soil treatment (Table 19, symbol P); type: in vivo, common chickweed (Stellaria media)
In short: as §2

lambsquarters [18] = assay: Test Example 4: herbicidal effect by soil treatment (Table 19, symbol O); type: in vivo, lambsquarters (Chenopodium album)
In short: as §2

persian speedwell [19] = assay: Test Example 4: herbicidal effect by soil treatment (Table 19, symbol R); type: in vivo, Persian speedwell (Veronica persica)
In short: as §2

velvetleaf [20] = assay: Test Example 4: herbicidal effect by soil treatment (Table 19, symbol M); type: in vivo, velvetleaf (Abutilon theophrasti)
In short: as §2

false cleavers = assay: Test Example 5: herbicidal effect by foliage application, plastic box (Table 20, symbol Q); type: in vivo, false cleavers (Galium spurium)
In short: as §1

southern crabgrass [21] = assay: Test Example 5: herbicidal effect by foliage application, plastic box (Table 20, symbol F); type: in vivo, southern crabgrass (Digitaria ciliaris)
In short: as §1

Italian ryegrass [22] = assay: Test Example 4: herbicidal effect by soil treatment (Table 19, symbol K); type: in vivo, Italian ryegrass (Lolium multiflorum)
In short: as §2

windgrass [23] = assay: Test Example 4: herbicidal effect by soil treatment (Table 19, symbol L); type: in vivo, windgrass (Apera spica-venti)
In short: as §2

barnyard grass [24] = assay: Test Example 5: herbicidal effect by foliage application, plastic box (Table 20, symbol H); type: in vivo, barnyard grass (Echinochloa crus-galli)
In short: as §1

redroot pigweed [25] = assay: Test Example 4: herbicidal effect by soil treatment (Table 19, symbol N); type: in vivo, redroot pigweed (Amaranthus retroflexus)
In short: as §2

[26] = foliage application, AAH 320 g/ha, three weeks after application
[27] = amount of applied herbicide 320 g/ha, foliage application after 14-day growth, evaluated three weeks after application
[28] = amount of applied herbicide 320 g/ha

## COc1nn(C)c(=O)c(-c2c(-c3ccc(F)c(F)c3)sc3ccccc23)c1O [1-172]
Windgrass [1]; [26]
  L: windgrass, herbicidal effect: 0 (Herbicidal rate of 5% or less (almost no effect))
Lambsquarters [2]; [26]
  O: lambsquarters, herbicidal effect: 5 (Herbicidal rate of 90% or more (almost completely withered))
Wild oat [3]; AAH 320 g/ha
  I: wild oat, herbicidal effect rating: 0 (Herbicidal rate of 5% or less (almost no effect))
Blackgrass [4]; AAH 320 g/ha
  J: blackgrass, herbicidal effect rating: 0 (Herbicidal rate of 5% or less (almost no effect))
Green foxtail [5]; [26]
  G: green foxtail, herbicidal effect: 4 (Herbicidal rate of 70% or more and less than 90%)
Velvetleaf [6]; [26]
  M: velvetleaf, herbicidal effect: 3 (Herbicidal rate of 40% or more and less than 70%)
Barnyard grass [7]; AAH 320 g/ha
  H: barnyard grass, herbicidal effect rating: 0 (Herbicidal rate of 5% or less (almost no effect))
Southern crabgrass [8]; AAH 320 g/ha
  F: southern crabgrass, herbicidal effect rating: 2 (Herbicidal rate of 20% or more and less than 40%)
Italian ryegrass [9]; [26]
  K: Italian ryegrass, herbicidal effect: 3 (Herbicidal rate of 40% or more and less than 70%)
Persian speedwell [10]; [26]
  R: persian speedwell, herbicidal effect: 5 (Herbicidal rate of 90% or more (almost completely withered))
Barnyard grass [11]
  herbicidal effect on H (barnyard grass), rating 0-5: 0 (Herbicidal rate of 5% or less (almost no effect))
Blackgrass [12]; [26]
  J: blackgrass, herbicidal effect: 0 (Herbicidal rate of 5% or less (almost no effect))
Redroot pigweed [13]; [26]
  N: redroot pigweed, herbicidal effect: 5 (Herbicidal rate of 90% or more (almost completely withered))
Chinese sprangletop
  herbicidal effect on D (Chinese sprangletop), rating 0-5: 0 (Herbicidal rate of 5% or less (almost no effect))
Chickweed [14]; [26]
  P: chickweed, herbicidal effect: 5 (Herbicidal rate of 90% or more (almost completely withered))
Rice flat sedge
  herbicidal effect on E (rice flat sedge), rating 0-5: 5 (Herbicidal rate of 90% or more (almost completely withered))
Green foxtail [15]; AAH 320 g/ha
  G: green foxtail, herbicidal effect rating: 5 (Herbicidal rate of 90% or more (almost completely withered))
Wild oat [16]; [26]
  I: wild oat, herbicidal effect: 0 (Herbicidal rate of 5% or less (almost no effect))
Chickweed [17]; AAH 320 g/ha
  P: chickweed, herbicidal effect rating: 5 (Herbicidal rate of 90% or more (almost completely withered))
Lambsquarters [18]; AAH 320 g/ha
  O: lambsquarters, herbicidal effect rating: 5 (Herbicidal rate of 90% or more (almost completely withered))
Persian speedwell [19]; AAH 320 g/ha
  R: persian speedwell, herbicidal effect rating: 5 (Herbicidal rate of 90% or more (almost completely withered))
Velvetleaf [20]; AAH 320 g/ha
  M: velvetleaf, herbicidal effect rating: 1 (Herbicidal rate of 5% or more and less than 20%)
False cleavers; [26]
  Q: false cleavers, herbicidal effect: 5 (Herbicidal rate of 90% or more (almost completely withered))
Southern crabgrass [21]; [26]
  F: southern crabgrass, herbicidal effect: 0 (Herbicidal rate of 5% or less (almost no effect))
Italian ryegrass [22]; AAH 320 g/ha
  K: Italian ryegrass, herbicidal effect rating: 1 (Herbicidal rate of 5% or more and less than 20%)
Windgrass [23]; AAH 320 g/ha
  L: windgrass, herbicidal effect rating: 0 (Herbicidal rate of 5% or less (almost no effect))
Barnyard grass [24]; [26]
  H: barnyard grass, herbicidal effect: 0 (Herbicidal rate of 5% or less (almost no effect))
Redroot pigweed [25]; AAH 320 g/ha
  N: redroot pigweed, herbicidal effect rating: 5 (Herbicidal rate of 90% or more (almost completely withered))

## CCCC(=O)Oc1c(C)nn(C)c(=O)c1-c1c(-c2ccc(F)cc2)sc2cc(F)c(F)cc12 [5-002]
Windgrass [1]; [27]
  Herbicidal effect by foliage application, L: windgrass: 5 (Herbicidal rate of 90% or more (almost completely withered))
Lambsquarters [2]; [27]
  Herbicidal effect by foliage application, O: lambsquarters: 5 (Herbicidal rate of 90% or more (almost completely withered))
Wild oat [3]; [28]
  I: wild oat, herbicidal effect grade: 3 (Herbicidal rate of 40% or more and less than 70%)
Blackgrass [4]; [28]
  J: blackgrass, herbicidal effect grade: 2 (Herbicidal rate of 20% or more and less than 40%)
Green foxtail [5]; [27]
  Herbicidal effect by foliage application, G: green foxtail: 5 (Herbicidal rate of 90% or more (almost completely withered))
Velvetleaf [6]; [27]
  Herbicidal effect by foliage application, M: velvetleaf: 5 (Herbicidal rate of 90% or more (almost completely withered))
Barnyard grass [7]; [28]
  H: barnyard grass, herbicidal effect grade: 3 (Herbicidal rate of 40% or more and less than 70%)
Southern crabgrass [8]; [28]
  F: southern crabgrass, herbicidal effect grade: 0 (Herbicidal rate of 5% or less (almost no effect))
Italian ryegrass [9]; [27]
  Herbicidal effect by foliage application, K: Italian ryegrass: 5 (Herbicidal rate of 90% or more (almost completely withered))
Persian speedwell [10]; [27]
  Herbicidal effect by foliage application, R: persian speedwell: 5 (Herbicidal rate of 90% or more (almost completely withered))
Barnyard grass [11]
  herbicidal effect on barnyard grass (H): 4 (Herbicidal rate of 70% or more and less than 90%)
Blackgrass [12]; [27]
  Herbicidal effect by foliage application, J: blackgrass: 4 (Herbicidal rate of 70% or more and less than 90%)
Redroot pigweed [13]; [27]
  Herbicidal effect by foliage application, N: redroot pigweed: 5 (Herbicidal rate of 90% or more (almost completely withered))
Chinese sprangletop
  herbicidal effect on Chinese sprangletop (D): 3 (Herbicidal rate of 40% or more and less than 70%)
Chickweed [14]; [27]
  Herbicidal effect by foliage application, P: chickweed: 5 (Herbicidal rate of 90% or more (almost completely withered))
Rice flat sedge
  herbicidal effect on rice flat sedge (E): 0 (Herbicidal rate of 5% or less (almost no effect))
Green foxtail [15]; [28]
  G: green foxtail, herbicidal effect grade: 4 (Herbicidal rate of 70% or more and less than 90%)
Wild oat [16]; [27]
  Herbicidal effect by foliage application, I: wild oat: 4 (Herbicidal rate of 70% or more and less than 90%)
Chickweed [17]; [28]
  P: chickweed, herbicidal effect grade: 4 (Herbicidal rate of 70% or more and less than 90%)
Lambsquarters [18]; [28]
  O: lambsquarters, herbicidal effect grade: 5 (Herbicidal rate of 90% or more (almost completely withered))
Persian speedwell [19]; [28]
  R: persian speedwell, herbicidal effect grade: 5 (Herbicidal rate of 90% or more (almost completely withered))
Velvetleaf [20]; [28]
  M: velvetleaf, herbicidal effect grade: 3 (Herbicidal rate of 40% or more and less than 70%)
False cleavers; [27]
  Herbicidal effect by foliage application, Q: false cleavers: 5 (Herbicidal rate of 90% or more (almost completely withered))
Southern crabgrass [21]; [27]
  Herbicidal effect by foliage application, F: southern crabgrass: 5 (Herbicidal rate of 90% or more (almost completely withered))
Italian ryegrass [22]; [28]
  K: Italian ryegrass, herbicidal effect grade: 5 (Herbicidal rate of 90% or more (almost completely withered))
Windgrass [23]; [28]
  L: windgrass, herbicidal effect grade: 5 (Herbicidal rate of 90% or more (almost completely withered))
Barnyard grass [24]; [27]
  Herbicidal effect by foliage application, H: barnyard grass: 4 (Herbicidal rate of 70% or more and less than 90%)
Redroot pigweed [25]; [28]
  N: redroot pigweed, herbicidal effect grade: 5 (Herbicidal rate of 90% or more (almost completely withered))
